Reference: PubChem BioAssay AID2060623 (Molecular Pharmacology Branch, DTP, NCI, 2025)

Test system: 227483-062-R1-J1-PDC complex spheroids with HUVEC/MSC, viability
Assay: Anticancer human tumor 227483-062-R1-J1-PDC patient-derived pancreatic carcinoma cell line growth inhibition [CLK]
Details: for IC50: curve of first compound; for viability, T/C: stronger effect = lower value
How it was run: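 Patient-derived tumor cells grown as complex spheroids with HUVEC endothelial cells and mesenchymal stem cells, treated with drug combinations. Concentrations descend in half-log steps from near clinical Cmax, or from 10 microM if Cmax unknown.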
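Further: spheroids exposed to compounds for seven days before readout.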
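Wherever viability, T/C is given: percent of DMSO vehicle control luminescence as 100% viability.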

## C#Cc1c(F)ccc2cc(O)cc(-c3ncc4c(N5CC6CCC(C5)N6)nc(OCC56CCCN5CC(F)C6)nc4c3F)c12 (configuration not stated) + CNC(=O)c1ccc(Nc2nc(OC3CCCC3)c3c(-c4ccc5nc(C)oc5c4)c[nH]c3n2)c(OC)c1
Second compound 0.0316 µM
  IC50: > 10 µM
Second compound 0.1 µM
  IC50: > 10 µM
Second compound 0.316 µM
  IC50: > 10 µM
Second compound 1 µM
  IC50: 5.62 µM
Second compound 3.16 µM
  IC50: 0.301 µM
Second compound 10 µM
  IC50: < 0.0316 µM
Second compound 0.0316 µM, first compound 0.0316 µM
  viability, T/C: 101%
Second compound 0.0316 µM, first compound 0.1 µM
  viability, T/C: 110%
Second compound 0.0316 µM, first compound 0.316 µM
  viability, T/C: 112%
Second compound 0.0316 µM, first compound 1 µM
  viability, T/C: 131%
Second compound 0.0316 µM, first compound 3.16 µM
  viability, T/C: 122%
Second compound 0.0316 µM, first compound 10 µM
  viability, T/C: 87.7%
Second compound 0.1 µM, first compound 0.0316 µM
  viability, T/C: 96.2%
Second compound 0.1 µM, first compound 0.1 µM
  viability, T/C: 120%
Second compound 0.1 µM, first compound 0.316 µM
  viability, T/C: 116%
Second compound 0.1 µM, first compound 1 µM
  viability, T/C: 111%
Second compound 0.1 µM, first compound 3.16 µM
  viability, T/C: 127%
Second compound 0.1 µM, first compound 10 µM
  viability, T/C: 68.5%
Second compound 0.316 µM, first compound 0.0316 µM
  viability, T/C: 106%
Second compound 0.316 µM, first compound 0.1 µM
  viability, T/C: 97.7%
Second compound 0.316 µM, first compound 0.316 µM
  viability, T/C: 94.8%
Second compound 0.316 µM, first compound 1 µM
  viability, T/C: 100%
Second compound 0.316 µM, first compound 3.16 µM
  viability, T/C: 87.8%
Second compound 0.316 µM, first compound 10 µM
  viability, T/C: 58.9%
Second compound 1 µM, first compound 0.0316 µM
  viability, T/C: 78.3%
Second compound 1 µM, first compound 0.1 µM
  viability, T/C: 71.9%
Second compound 1 µM, first compound 0.316 µM
  viability, T/C: 74.7%
Second compound 1 µM, first compound 1 µM
  viability, T/C: 61.9%
Second compound 1 µM, first compound 3.16 µM
  viability, T/C: 61.1%
Second compound 1 µM, first compound 10 µM
  viability, T/C: 41.6%
Second compound 3.16 µM, first compound 0.0316 µM
  viability, T/C: 49.2%
Second compound 3.16 µM, first compound 0.1 µM
  viability, T/C: 57.4%
Second compound 3.16 µM, first compound 0.316 µM
  viability, T/C: 51%
Second compound 3.16 µM, first compound 1 µM
  viability, T/C: 41.9%
Second compound 3.16 µM, first compound 3.16 µM
  viability, T/C: 43.8%
Second compound 3.16 µM, first compound 10 µM
  viability, T/C: 33.5%
Second compound 10 µM, first compound 0.0316 µM
  viability, T/C: 42.1%
Second compound 10 µM, first compound 0.1 µM
  viability, T/C: 38%
Second compound 10 µM, first compound 0.316 µM
  viability, T/C: 43.7%
Second compound 10 µM, first compound 1 µM
  viability, T/C: 34.6%
Second compound 10 µM, first compound 3.16 µM
  viability, T/C: 34.8%
Second compound 10 µM, first compound 10 µM
  viability, T/C: 28.3%
